According to PubChem BioAssay AID1963970 (Molecular Pharmacology Branch, DTP, NCI, 2024):
Where “and” joins values, the source holds several entries; their conditions need not be identical. Equal values may be shown once.

System: 931267-113-T-J1-PDC multicell spheroid viability
Assay: Anticancer human tumor 931267-113-T-J1-PDC patient-derived colon adenocarcinoma cell line growth inhibition [PI3K]
Conditions: for viability, T/C: stronger effect = lower value
Summary of the method: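 Three cell types, namely tumor cells, endothelial cells and mesenchymal stem cells, formed each spheroid. Combinations with four PI3K inhibitors were screened at clinically achievable concentrations decreasing by half-log, and spheroid viability was recorded.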

[1] = curve of first compound, second compound 0.0316 µM
[2] = curve of first compound, second compound 0.1 µM
[3] = curve of first compound, second compound 0.316 µM
[4] = curve of first compound, second compound 1 µM
[5] = second compound 0.0316 µM, first compound 0.000316 µM
[6] = second compound 0.0316 µM, first compound 0.001 µM
[7] = second compound 0.0316 µM, first compound 0.00316 µM
[8] = second compound 0.0316 µM, first compound 0.01 µM
[9] = second compound 0.0316 µM, first compound 0.0316 µM
[10] = second compound 0.0316 µM, first compound 0.1 µM
[11] = second compound 0.1 µM, first compound 0.000316 µM
[12] = second compound 0.1 µM, first compound 0.001 µM
[13] = second compound 0.1 µM, first compound 0.00316 µM
[14] = second compound 0.1 µM, first compound 0.01 µM
[15] = second compound 0.1 µM, first compound 0.0316 µM
[16] = second compound 0.1 µM, first compound 0.1 µM
[17] = second compound 0.316 µM, first compound 0.000316 µM
[18] = second compound 0.316 µM, first compound 0.001 µM
[19] = second compound 0.316 µM, first compound 0.00316 µM
[20] = second compound 0.316 µM, first compound 0.01 µM
[21] = second compound 0.316 µM, first compound 0.0316 µM
[22] = second compound 0.316 µM, first compound 0.1 µM
[23] = second compound 1 µM, first compound 0.000316 µM
[24] = second compound 1 µM, first compound 0.001 µM
[25] = second compound 1 µM, first compound 0.00316 µM
[26] = second compound 1 µM, first compound 0.01 µM
[27] = second compound 1 µM, first compound 0.0316 µM
[28] = second compound 1 µM, first compound 0.1 µM
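Note: viability read 7 days after compound addition.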

C#Cc1c(F)ccc2cc(O)cc(-c3ncc4c(N5CC6CCC(C5)N6)nc(OCC56CCCN5CC(F)C6)nc4c3F)c12 (stereo unspecified)
viability, T/C (compound 0.0316 µM): 85% [middle of 4 runs] | viability, T/C (compound 0.1 µM): 71.4% [middle of 4 runs] | viability, T/C (compound 0.316 µM): 58.2% [middle of 4 runs] | viability, T/C (compound 1 µM): 44.2% [middle of 4 runs] | viability, T/C (compound 3.16 µM): 36.2% [middle of 4 runs] | viability, T/C (compound 10 µM): 24% and 25.4% and 23.7% (2×) | IC50 (curve of compound): 670 nM [middle of 4 runs]

Cn1ncnc1[C@H]1c2n[nH]c(=O)c3cc(F)cc(c23)N[C@@H]1c1ccc(F)cc1 + Cc1nc(NC(=O)N2CCCC2C(N)=O)sc1-c1ccnc(C(C)(C)C(F)(F)F)c1
IC50 [1]: > 100 nM | IC50 [2]: > 100 nM | IC50 [3]: > 100 nM | IC50 [4]: > 100 nM | IC50 (curve of first compound, second compound 3.16 µM): > 100 nM | IC50 (curve of first compound, second compound 10 µM): > 100 nM | viability, T/C [5]: 107% | viability, T/C [6]: 98.2% | viability, T/C [7]: 84.2% | viability, T/C [8]: 94.1% | viability, T/C [9]: 91% | viability, T/C [10]: 97.5% | viability, T/C [11]: 113% | viability, T/C [12]: 94.8% | viability, T/C [13]: 107% | viability, T/C [14]: 98.8% | viability, T/C [15]: 90.2% | viability, T/C [16]: 75.1% | viability, T/C [17]: 93.9% | viability, T/C [18]: 89.5% | viability, T/C [19]: 89.5% | viability, T/C [20]: 95% | viability, T/C [21]: 82% | viability, T/C [22]: 89.8% | viability, T/C [23]: 74.5% | viability, T/C [24]: 73.7% | viability, T/C [25]: 86.3% | viability, T/C [26]: 78.5% | viability, T/C [27]: 79.7% | viability, T/C [28]: 72.1% | viability, T/C (second compound 3.16 µM, first compound 0.000316 µM): 78.9% | viability, T/C (second compound 3.16 µM, first compound 0.001 µM): 68.6% | viability, T/C (second compound 3.16 µM, first compound 0.00316 µM): 61.7% | viability, T/C (second compound 3.16 µM, first compound 0.01 µM): 63.8% | viability, T/C (second compound 3.16 µM, first compound 0.0316 µM): 70.7% | viability, T/C (second compound 3.16 µM, first compound 0.1 µM): 64.6% | viability, T/C (second compound 10 µM, first compound 0.000316 µM): 57.7% | viability, T/C (second compound 10 µM, first compound 0.001 µM): 55.2% | viability, T/C (second compound 10 µM, first compound 0.00316 µM): 54.2% | viability, T/C (second compound 10 µM, first compound 0.01 µM): 51.8% | viability, T/C (second compound 10 µM, first compound 0.0316 µM): 59.2% | viability, T/C (second compound 10 µM, first compound 0.1 µM): 52.8%

CC(=O)c1c(C)c2cnc(Nc3ccc(N4CCNCC4)cn3)nc2n(C2CCCC2)c1=O + CC(Nc1ccc2c(c1)OCCn1cc(N3C(=O)OCC3C(F)F)nc1-2)C(N)=O
IC50 (curve of first compound, second compound 0.00316 µM): > 100 nM | IC50 (curve of first compound, second compound 0.01 µM): > 100 nM | IC50 [1]: > 100 nM | IC50 [2]: > 100 nM | IC50 [3]: > 100 nM | IC50 [4]: > 100 nM | viability, T/C (second compound 0.00316 µM, first compound 0.000316 µM): 104% | viability, T/C (second compound 0.00316 µM, first compound 0.001 µM): 110% | viability, T/C (second compound 0.00316 µM, first compound 0.00316 µM): 95.1% | viability, T/C (second compound 0.00316 µM, first compound 0.01 µM): 111% | viability, T/C (second compound 0.00316 µM, first compound 0.0316 µM): 105% | viability, T/C (second compound 0.00316 µM, first compound 0.1 µM): 99.8% | viability, T/C (second compound 0.01 µM, first compound 0.000316 µM): 111% | viability, T/C (second compound 0.01 µM, first compound 0.001 µM): 101% | viability, T/C (second compound 0.01 µM, first compound 0.00316 µM): 98.7% | viability, T/C (second compound 0.01 µM, first compound 0.01 µM): 93.3% | viability, T/C (second compound 0.01 µM, first compound 0.0316 µM): 108% | viability, T/C (second compound 0.01 µM, first compound 0.1 µM): 105% | viability, T/C [5]: 108% | viability, T/C [6]: 93.5% | viability, T/C [7]: 91.9% | viability, T/C [8]: 106% | viability, T/C [9]: 110% | viability, T/C [10]: 95.4% | viability, T/C [11]: 100% | viability, T/C [12]: 97.7% | viability, T/C [13]: 92.7% | viability, T/C [14]: 87.1% | viability, T/C [15]: 105% | viability, T/C [16]: 87.8% | viability, T/C [17]: 92.1% | viability, T/C [18]: 88.1% | viability, T/C [19]: 81% | viability, T/C [20]: 85.7% | viability, T/C [21]: 91.6% | viability, T/C [22]: 82.2% | viability, T/C [23]: 75.9% | viability, T/C [24]: 74% | viability, T/C [25]: 77.8% | viability, T/C [26]: 70.5% | viability, T/C [27]: 80.1% | viability, T/C [28]: 66.3%
